Here are results for 26 compounds from patent US12240812B2, “Compound for inhibiting PGE2/EP4 signaling transduction inhibiting, preparation method therefor, and medical uses thereof” (Keythera (Suzhou) Pharmaceuticals Co. Ltd., priority 2019, dated 2025).

For the test, the system named is PGE2/EP4 signal transduction in MCF7 cells. The test is described as follows: Determination of MCF7 cAMP (PGE2-stimulated, HTRF). Format: cell-based. To be noted: Homo sapiens; MCF7 cells, 10 nM PGE2 stimulation, cAMP HTRF; read-out: MCF7 cAMP IC50. How it is done: • a) MCF7 cells (ATCC, 6000 cells/well/40 μl) were inoculated into a 384-well cell culture plate containing a medium (DMEM containing 10% FBS and 1×PS), and incubated overnight at 37° C. and 5% CO2. • b) The medium was removed, 40 μl/well of serum-free medium was added, and the cells were incubated at 37° C. and 5% CO2 for 5 hours. • c) The medium was replaced with 18 μL/well of HBSS buffer (Hepes 20 mM, 0.1% BSA, 500 μM IBMX). • d) The compound in DMSO was diluted (1/5 dilution, 9+0 dose). • e) 2 μL of the compound in d) was added to 98 μL of HBSS buffer. • f) 1 μL/well of the diluted compound in e) was added to the cells, with a final starting concentration of 1 μM, and the cells were incubated at 37° C. for 1 hour. • g) The cells were stimulated with 1 μL/well of PGE2 (10 mM DMSO stock solution) (final concentration: 10 nM, and DMSO final concentration: 0.2%), and incubated at 37° C. for 30 minutes. • h) After the incubation, 10 μL/well of cAMP-d2 and 10 μL/well of anti-cAMP were added, RT 1 h. • i) HTRF signals (665 nm/615 nm) were read on Envision. Data Analysis: • High control: 1 μM E7046 • Low control: DMSO • Background: 30 μL/well of lysis buffer+10 μL/well of anti-cAMP • Analytical data: original date—background Inhibition %: 100−100×(high control−analytical data)/(high control−low control)
Background: In TR-FRET formats the signal depends on donor and acceptor labels being close together.

A word on the IC50: it is the concentration that gives 50% inhibition.

Turning to `CC(NC(=O)c1cccc2ccn(Cc3cc4ccccc4o3)c12)C12CC(C(=O)O)(C1)C2` (racemic) [Compound 20, 3-(1-(1-(Benzofuran-2-ylmethyl)-1H-indole-7-carboxamido)ethyl)bicyclo[1.1.1]pentane-1-carboxylic acid], the concentration for half-maximal inhibition (IC50) came out at 34 nM.

As for `CC(NC(=O)c1cncc2ccn(Cc3cc4ccccc4o3)c12)C12CC(C(=O)O)(C1)C2` (racemic) [Compound 26, 3-(1-(1-(Benzofuran-2-ylmethyl)-1H-pyrrolo[3,2-c]pyridine-7-carboxamido)ethyl)bicyclo[1.1.1]pentane-1-carboxylic acid], the IC50 came to 60 nM.

Regarding `O=C(NC1(C23CC(C(=O)O)(C2)C3)CC1)c1cccc2ccn(Cc3ccc4ccccc4n3)c12` [Compound 3, 3-(1-(1-(Quinolin-2-ylmethyl)-1H-indole-7-carboxamido)cyclopropyl)bicyclo[1.1.1]pentane-1-carboxylic acid], the half-maximal inhibitory concentration (IC50) was 7.8 nM.

Turning to `O=C(NC1(C23CC(C(=O)O)(C2)C3)CC1)c1cccc2ccn(Cc3ccc(Cl)cc3)c12` [Compound 4, 3-(1-(1-(4-Chlorobenzyl)-1H-indole-7-carboxamido)cyclopropyl)bicyclo[1.1.1]pentane-1-carboxylic acid], the IC50 worked out at 61 nM.

`O=C(NC1(C23CC(C(=O)O)(C2)C3)CC1)c1cccc2ccn(Cc3ccc(-c4ccccc4)nc3)c12` [Compound 5, 3-(1-(1-((6-Phenylpyridin-3-yl)methyl)-1H-indole-7-carboxamido)cyclopropyl)bicyclo[1.1.1]pentane-1-carboxylic acid]: the 50% inhibitory concentration (IC50) is 5.5 nM.

As for `O=C(NC1(C23CC(C(=O)O)(C2)C3)CC1)c1cc(Cl)cc2ccn(Cc3ccc(C(F)(F)F)cc3)c12` [Compound 8, 3-(1-(5-Chloro-1-(4-(trifluoromethyl)benzyl)-1H-indole-7-carboxamido)cyclopropyl)bicyclo[1.1.1]pentane-1-carboxylic acid], the concentration for half-maximal inhibition (IC50) is 2.9 nM.

As to `O=C(NC1(C23CC(C(=O)O)(C2)C3)CC1)c1cccc2ccn(Cc3ccc(N4CCOCC4)cn3)c12` [Compound 10, 3-(1-(1-((5-Morpholinopyridin-2-yl)methyl)-1H-indole-7-carboxamido)cyclopropyl)bicyclo[1.1.1]pentane-1-carboxylic acid], the half-inhibitory concentration (IC50) was determined as 72 nM.

For `O=C(NC1(C23CC(C(=O)O)(C2)C3)CC1)c1cccc2ccn(Cc3ccc(-c4ccccn4)cn3)c12` [Compound 11, 3-(1-(1-([2,3′-Bipyridin]-6′-ylmethyl)-1H-indole-7-carboxamido)cyclopropyl)bicyclo[1.1.1]pentane-1-carboxylic acid], the IC50 stood at 30 nM.

On to `O=C(NC1(C23CC(C(=O)O)(C2)C3)CC1)c1cccc2ccn(Cc3ccc(-c4cccnc4)cn3)c12` [Compound 12, 3-(1-(1-([3,3′-Bipyridin]-6-ylmethyl)-1H-indole-7-carboxamido)cyclopropyl)bicyclo[1.1.1]pentane-1-carboxylic acid], for which the concentration for half-maximal inhibition (IC50) was 62.9 nM.

Consider `O=C(NC1(C23CC(C(=O)O)(C2)C3)CC1)c1cccc2ccn(Cc3ccc(-c4ccncc4)cn3)c12` [Compound 13, 3-(1-(1-([3,4′-Bipyridin]-6-ylmethyl)-1H-indole-7-carboxamido)cyclopropyl)bicyclo[1.1.1]pentane-1-carboxylic acid], for which the IC50 was determined as 11.5 nM.

For the compound `Cn1cc(-c2ccc(Cn3ccc4cccc(C(=O)NC5(C67CC(C(=O)O)(C6)C7)CC5)c43)nc2)cn1` [Compound 14, 3-(1-(1-((5-(1-Methyl-1H-pyrazol-4-yl)pyridin-2-yl)methyl)-1H-indole-7-carboxamido)cyclopropyl)bicyclo[1.1.1]pentane-1-carboxylic acid], the 50% inhibitory concentration (IC50) turned out to be 24.4 nM.

`O=C(NC1(C23CC(C(=O)O)(C2)C3)CC1)c1cccc2ccn(Cc3ccc(-c4cn[nH]c4)cn3)c12` [Compound 15, 3-(1-(1-((5-(1H-Pyrazol-4-yl)pyridin-2-yl)methyl)-1H-indole-7-carboxamido)cyclopropyl) bicyclo[1.1.1]pentane-1-carboxylic acid]: the IC50 was found to be 14.5 nM.

Regarding `O=C(NC1(C23CC(C(=O)O)(C2)C3)CC1)c1cccc2ccn(Cc3ccc(-c4cnn(CCCO)c4)cn3)c12` [Compound 16, 3-(1-(1-((5-(1-(3-Hydroxypropyl)-1H-pyrazol-4-yl)pyridin-2-yl)methyl)-1H-indole-7-carboxamido)cyclopropyl)bicyclo[1.1.1]pentane-1-carboxylic acid], the 50% inhibitory concentration (IC50) is 215 nM.

Consider `O=C(NC1(C23CC(C(=O)O)(C2)C3)CC1)c1cccc2ccn(Cc3ccc(N4CCCC(O)C4)cn3)c12` (centres unmarked) [Compound 17, 3-(1-(1-((5-(3-Hydroxypiperidin-1-yl)pyridin-2-yl)methyl)-1H-indole-7-carboxamido)cyclopropyl)bicyclo[1.1.1]pentane-1-carboxylic acid], for which the IC50 worked out at 35 nM.

With `O=C(NC1(C23CC(C(=O)O)(C2)C3)CC1)c1cccc2ccn(Cc3ccc(C4CC4)cn3)c12` [Compound 18, 3-(1-(1-((5-Cyclopropylpyridin-2-yl)methyl)-1H-indole-7-carboxamido)cyclopropyl)bicyclo[1.1.1]pentane-1-carboxylic acid], the 50% inhibitory concentration (IC50) is 62.9 nM.

Take `O=C(NC1(C23CC(C(=O)O)(C2)C3)CC1)c1cccc2ccn(Cc3ccc(-c4ccccc4CO)cn3)c12` [Compound 19, 3-(1-(1-((5-(2-(Hydroxymethyl)phenyl)pyridin-2-yl)methyl)-1H-indole-7-carboxamido)cyclopropyl)bicyclo[1.1.1]pentane-1-carboxylic acid]: the IC50 worked out at 106 nM.

For the compound `C[C@H](NC(=O)c1cccc2ccn(Cc3cc4ccccc4o3)c12)C12CC(C(=O)O)(C1)C2` [Compound 20-5, (S)-3-(1-(1-(benzofuran-2-ylmethyl)-1H-indole-7-carboxamido)ethyl)bicyclo[1.1.1]pentane-1-carboxylic acid], the half-maximal inhibitory concentration (IC50) came out at 14 nM.

With `C[C@@H](NC(=O)c1cccc2ccn(Cc3cc4ccccc4o3)c12)C12CC(C(=O)O)(C1)C2` [Compound 20-6, (R)-3-(1-(1-(benzofuran-2-ylmethyl)-1H-indole-7-carboxamido)ethyl)bicyclo[1.1.1]pentane-1-carboxylic acid], the half-maximal inhibitory concentration (IC50) came out at 78 nM.

Take `O=C(NC1(C23CC(C(=O)O)(C2)C3)CC1)c1cccc2ccn(Cc3cc4ccc(F)cc4o3)c12` [Compound 22, 3-(1-(1-((6-Fluorobenzofuran-2-yl)methyl)-1H-indole-7-carboxamido)cyclopropyl)bicyclo[1.1.1]pentane-1-carboxylic acid]: the IC50 turned out to be 1.4 nM.

With `O=C(NC1(C23CC(C(=O)O)(C2)C3)CC1)c1cccc2ccn(Cc3nc4ccccc4o3)c12` [Compound 23, 3-(1-(1-(Benzo[d]oxazol-2-ylmethyl)-1H-indole-7-carboxamido)cyclopropyl)bicyclo[1.1.1]pentane-1-carboxylic acid], the 50% inhibitory concentration (IC50) is 8 nM.

For the compound `O=C(NC1(C23CC(C(=O)O)(C2)C3)CC1)c1cccc2ccn(Cc3nc4ccccc4s3)c12` [Compound 24, 3-(1-(1-(Benzo[d]thiazol-2-ylmethyl)-1H-indole-7-carboxamido)cyclopropyl)bicyclo[1.1.1]pentane-1-carboxylic acid], the IC50 worked out at 12 nM.

For `C[C@H](NC(=O)c1cncc2ccn(Cc3cc4ccccc4o3)c12)C12CC(C(=O)O)(C1)C2` [Compound 26-1, (S)-3-(1-(1-(benzofuran-2-ylmethyl)-1H-pyrrolo[3,2-c]pyridine-7-carboxamido)ethyl)bicyclo[1.1.1]pentane-1-carboxylic acid], the 50% inhibitory concentration (IC50) came to 30 nM.

For the compound `C[C@@H](NC(=O)c1cncc2ccn(Cc3cc4ccccc4o3)c12)C12CC(C(=O)O)(C1)C2` [Compound 26-2, (R)-3-(1-(1-(benzofuran-2-ylmethyl)-1H-pyrrolo[3,2-c]pyridine-7-carboxamido)ethyl)bicyclo[1.1.1]pentane-1-carboxylic acid], the IC50 was over 100 nM.

As to `O=C(NC1(C23CC(C(=O)O)(C2)C3)CC1)c1cncc2ccn(Cc3cc4cc(F)ccc4o3)c12` [Compound 27, 3-(1-(1-((5-Fluorobenzofuran-2-yl)methyl)-1H-pyrrolo[3,2-c]pyridine-7-carboxamido)cyclopropyl)bicyclo[1.1.1]pentane-1-carboxylic acid], the 50% inhibitory concentration (IC50) was 1.2 nM.

As to `O=C(NC1(C23CC(C(=O)O)(C2)C3)CC1)c1cncc2ccn(Cc3cc4cc(C(F)(F)F)ccc4o3)c12` [Compound 28, 3-(1-(1-((5-(Trifluoromethyl)benzofuran-2-yl)methyl)-1H-pyrrolo[3,2-c]pyridine-7-carboxamido)cyclopropyl)bicyclo[1.1.1] pentane-1-carboxylic acid], the concentration for half-maximal inhibition (IC50) was determined as 1.5 nM.

With `[2H]C(c1cc2ccccc2o1)n1ccc2cccc(C(=O)NC3(C45CC(C(=O)O)(C4)C5)CC3)c21` (centres unmarked) [Compound 29, 3-(1-(1-(Benzofuran-2-ylmethyl-d)-1H-indole-7-carboxamido)cyclopropyl)bicyclo[1.1.1]pentane-1-carboxylic acid], the IC50 stood at 1.5 nM.
